According to patent publication EP4371976B1, “IONIZABLE LIPIDS AND LIPID NANOPARTICLES CONTAINING THEREOF” (Certest Biotec, S.L., priority 2022, dated 2024):

Tests used:
[1] = RNA encapsulation efficiency of LNPs by Quant-IT Ribogreen; assay type: physicochemical; conditions: LNPs with luciferase mRNA; ionizable lipid:non-cationic lipid:sterol:PEG-modified lipid 50:10:38.5:1.5; percentage of RNA entrapped in the LNP
Method: The mRNA aqueous solution was then carefully added to the ethanol solution, and the resulted solution was homogenized by pipetting up and down for 4-5 times. The resulting LNPs were immediately diluted 1:1 with Tris buffer and dialyzed overnight against Tris buffer containing 15% sucrose. The resulting LNP solution was then collected, and the encapsulated mRNA was assessed by Quant-IT® Ribogreen (Invitrogen R11490) following the manufacturer's instructions.
(§1) The LNP solution was then adjusted to a final concentration of mRNA of 100 µg/ml. Size distribution, polydispersity and Z-potential were measured by dynamic light scattering (DLS) using Malvern Zetasizer Advance Lab Blue Label. RNA encapsulation was assessed by Quant-IT® Ribogreen following the manufacturer's instructions.

[2] = Size distribution, polydispersity and Z-potential of LNPs by dynamic light scattering (Malvern Zetasizer); assay type: physicochemical; conditions: LNPs, standard formulation 50:10:38.5:1.5; DLS
Method: as §1

SMILES	Encaps. efficiency (%) [1] [%]	Z Potential (± D.E.) [mV] [2] [mV]	P.D.I. [2]	Particle size/ Ø (nm) [2] [nm]
CCCCCCCCCCCCCOC(=O)CCSCCC(NC(=O)C(CCCCCC)CCCCCCCC)C(=O)NCCCN(C)C (centres unmarked) [VC-LC-0099]	98.48	0.00	–	–
CCCCCCCCCCCCOC(=O)CCSCCC(NC(=O)C(CCCCCC)CCCCCCCC)C(=O)NCCCN(C)C (centres unmarked) [VC-LC-0103]	100.00	0.00	–	–
CCCCCCCCCCCCCCOC(=O)CCSCCC(NC(=O)C(CCCCCC)CCCCCCCC)C(=O)NCCCN(C)C (centres unmarked) [VC-LC-0104]	100.00	0.00	–	–
CCCCCCCCCCCCCCCCOC(=O)CCSCCC(NC(=O)C(CCCCCC)CCCCCCCC)C(=O)NCCCN(C)C (centres unmarked) [VC-LC-0106]	98.70	0.00	–	–
CCCCCCCCC(CCCCCC)C(=O)NC(CCSCCC(=O)OCCCCCC(C)C)C(=O)NCCCN(C)C (centres unmarked) [VC-LC-0107]	100.00	0.00	–	–
CCCCCCCCC(CCCCCC)C(=O)NC(CCSCCC(=O)OCCCCCCCC(C)C)C(=O)NCCCN1CCOCC1 (centres unmarked) [VC-LC-0165]	45.16	-26.69	0.21	181.9
CCCCCCCCC(CCCCCC)C(=O)NC(CCSCCC(=O)OCC(CC)CCCC)C(=O)NCCCN1CCOCC1 (centres unmarked) [VC-LC-0166]	42.53	-24.55	0.11	164.8
CCCCCCCCCCCCCCCCOC(=O)CCSCCC(NC(=O)C(CCCCCC)CCCCCCCC)C(=O)NCCCN1CCOCC1 (centres unmarked) [VC-LC-0170]	56.36	-22.79	–	266.4
CCCCCCCCC(CCCCCC)C(=O)NC(CCSCCC(=O)OCCCCCC(C)C)C(=O)NCCCN1CCOCC1 (centres unmarked) [VC-LC-0171]	53.65	-23.07	0.24	228.8
CCCCCCCCC(CCCCCC)C(=O)NC(CCSCCC(=O)OCCCCCC)C(=O)NCCCN1CCOCC1 (centres unmarked) [VC-LC-0175]	23.97	-15.84	0.09	120
CCCCCCCCC(CCCCCC)C(=O)NC(CCSCCC(=O)OCCCCCCCC(C)C)C(=O)NCCN1CCN(C)CC1 (centres unmarked) [VC-LC-0180]	87.95	-4.28	0.19	197.5
CCCCCCCCC(CCCCCC)C(=O)NC(CCSCCC(=O)OCC(CC)CCCC)C(=O)NCCN1CCN(C)CC1 (centres unmarked) [VC-LC-0181]	85.48	-6.47	0.35	206.7
CCCCCCCCCCCCOC(=O)CCSCCC(NC(=O)C(CCCCCC)CCCCCCCC)C(=O)NCCN1CCN(C)CC1 (centres unmarked) [VC-LC-0182]	91.18	-2.72	0.22	217.1
CCCCCCCCC(CCCCCC)C(=O)NC(CCSCCC(=O)OCCCCCC(C)C)C(=O)NCCN1CCN(C)CC1 (centres unmarked) [VC-LC-0186]	86.70	3.38	0.18	158.7
CCCCCCCCOC(=O)CCSCCC(NC(=O)C(CCCCCC)CCCCCCCC)C(=O)NCCN1CCN(C)CC1 (centres unmarked) [VC-LC-0191]	87.02	4.77	0.11	135.2
CCCCCCCCC(CCCCCC)C(=O)NC(CCSCCC(=O)OCC(CC)CCCC)C(=O)NCCCN(CCO)CCO (centres unmarked) [VC-LC-0197]	90.54	1.39	0.22	262.2
CCCCCCCCCCCCCCCCOC(=O)CCSCCC(NC(=O)C(CCCCCC)CCCCCCCC)C(=O)NCCCN(CCO)CCO (centres unmarked) [VC-LC-0201]	86.70	2.80	–	259.7
CCCCCCCCC(CCCCCC)C(=O)NC(CCSCCC(=O)OCCCCCC)C(=O)NCCCN(CCO)CCO (centres unmarked) [VC-LC-0206]	82.26	-2.86	0.17	179.9
CCCCCCCCC(CCCCCC)C(=O)NC(CCSCCC(=O)OCCCCCCCC(C)C)C(=O)NC1CCN(C)CC1 (centres unmarked) [VC-LC-0211]	67.87	-4.59	0.14	181

SMILES	Encaps. efficiency (%) [1] [%]	Z Potential (± D.E.) [mV] [2] [mV]	P.D.I. [2]	Particle size/ Ø (nm) [2] [nm]
CCCCCCCCC(CCCCCC)C(=O)NC(CCSCCC(=O)OCC(CC)CCCC)C(=O)NC1CCN(C)CC1 (centres unmarked) [VC-LC-0212]	83.35	-20.85	0.26	179
CCCCCCCCCCCCCCCCOC(=O)CCSCCC(NC(=O)C(CCCCCC)CCCCCCCC)C(=O)NC1CCN(C)CC1 (centres unmarked) [VC-LC-0216]	52.13	-20.53	0.35	–
CCCCCCCCC(CCCCCC)C(=O)NC(CCSCCC(=O)OCCCCCC(C)C)C(=O)NC1CCN(C)CC1 (centres unmarked) [VC-LC-0217]	72.79	-2.41	0.14	156.7
CCCCCCCCC(CCCCCC)C(=O)NC(CCSCCC(=O)OCCCCCCCC(C)C)C(=O)NCCCN1CCCC1 (centres unmarked) [VC-LC-0243]	93.35	2.43	0.18	197.6
CCCCCCCCC(CCCCCC)C(=O)NC(CCSCCC(=O)OCC(CC)CCCC)C(=O)NCCCN1CCCC1 (centres unmarked) [VC-LC-0244]	53.57	1.09	0.16	175
CCCCCCCCCCCCOC(=O)CCSCCC(NC(=O)C(CCCCCC)CCCCCCCC)C(=O)NCCCN1CCCC1 (centres unmarked) [VC-LC-0245]	94.64	5.96	0.16	177.3
CCCCCCCCCCCCOC(=O)CCSCCC(NC(=O)C(CCCCCC)CCCCCCCC)C(=O)NCCCn1ccnc1 (centres unmarked) [VC-LC-0260]	44.25	-17.24	0.18	161.7
CCCCCCCCOC(=O)CCSCCC(NC(=O)C(CCCCCC)CCCCCCCC)C(=O)NCCCn1ccnc1 (centres unmarked) [VC-LC-0269]	36.60	-10.28	0.15	176.7
CCCCCCCC/C=C\CCCCCCCC(=O)NC(CCSCCC(=O)OCCCCCCCCCCCCCCCC)C(=O)NCCCN(CCO)CCO (centres unmarked) [VC-LC-0290]	56.36	-22.79	–	266.4
CCCCCCCC/C=C\CCCCCCCC(=O)NC(CCSCCC(=O)OCCCCCC(C)C)C(=O)NCCCN(CCO)CCO (centres unmarked) [VC-LC-0293]	92.48	12.29	0.13	178.6
CCCCCCCCCCCCCOC(=O)CCSCC(CC(=O)NCCCn1ccnc1)C(=O)OC(CCCCCCCC)CCCCCCCC (centres unmarked) [VC-LC-0294]	65.74	-10.37	0.09	160.7
CCCCCCCCCCCCCCCCCCOC(=O)CCSCC(CC(=O)NCCCn1ccnc1)C(=O)OC(CCCCCCCC)CCCCCCCC (centres unmarked) [VC-LC-0300]	36.51	-9.75	0.17	156.9
CCCCCCCCCCCCCCCCCCCCCCOC(=O)CCSCC(CC(=O)NCCCn1ccnc1)C(=O)OC(CCCCCCCC)CCCCCCCC (centres unmarked) [VC-LC-0304]	54.05	-23.20	0.26	–
CCCCCCCC/C=C\CCCCCCCC(=O)NC(CCSCCC(=O)OCCCCCCCCCCCCC)C(=O)NC1CCN(C)CC1 (centres unmarked) [VC-LC-0322]	97.01	2.31	0.17	220.5
CCCCCCCC/C=C\CCCCCCCC(=O)NC(CCSCCC(=O)OCCCCCCCCCCCC)C(=O)NC1CCN(C)CC1 (centres unmarked) [VC-LC-0326]	99.06	7.00	0.25	181.9
CCCCCCCC#CCOC(=O)CCSCCC(NC(=O)CCCCCCC/C=C\CCCCCCCC)C(=O)NCCCN1CCOCC1 (centres unmarked) [VC-LC-0354]	68.28	-0.57	0.13	234.3
CCCCCCCCCCCCCCCCCCCCCCOC(=O)CCSCCC(C(=O)NCCCn1ccnc1)C(=O)OC(CCCCCCCC)CCCCCCCC (centres unmarked) [VC-LC-0363]	63.87	-17.92	0.18	143.9
CCCCCCCCCCCCCCCCCCOC(=O)CCSCCC(C(=O)NCCCn1ccnc1)C(=O)OC(CCCCCCCC)CCCCCCCC (centres unmarked) [VC-LC-0368]	89.08	-15.81	0.1	140.9
CCCCCCCCC(CCCCCCCC)OC(=O)C(CCSCCC(=O)OCCCCCC(C)C)C(=O)NCCCn1ccnc1 (centres unmarked) [VC-LC-0370]	62.48	-7.08	0.21	134.7
